Experimental data published in US20110152092A1, “Herbicidal compositions comprising flufenacet” (Bayer CropScience AG, priority 2009, published 2011).

Columns and labels:
[1] = tested on: HORVS; test: Greenhouse trial, PE application, selective pre-emergence action on crop (test method 3); format: in vivo, Hordeum vulgare, summer barley; details: g of AS/ha: (A) 90, (B) 1200, (C) 90, mixture 90 + 1200
Procedure: (§1) In the standard design of the test, seeds of various broad-leaved weed and weed grass biotypes (origins) were sown in a 8-13 cm diameter pot filled with natural soil of a standard field soil (loamy silt; non-sterile) and covered with a covering soil layer of about 1 cm. The pots were then cultivated in a greenhouse (12-16 h of light, temperature day 20-22° C., night 15-18° C.) until the time of application. The pots were treated on a laboratory track sprayer with spray liquors comprising the compositions according to the invention, mixtures of the prior art or components used individually. Application of the active compounds or active compound combinations formulated as WG, WP, EC or otherwise was carried out at the appropriate growth stages of the plants. The application rate for the spray application was 100-600 l of water/ha. After the treatment, the plants were returned to the greenhouses.
(§2) About 3 weeks after the application, the soil action or/and foliar action was assessed visually according to a scale of 0-100% in comparison to an untreated comparative group: 0%=no noticeable effect compared to the untreated comparative group; 100%=full effect compared to the untreated comparative group. […]

[2] = tested on: HORVS; test: Greenhouse trial, PO application, selective post-emergence action on crop (test method 4); format: in vivo, Hordeum vulgare, summer barley; details: g of AS/ha: (A) 120, (B) 1200, (C) 120, mixture 120 + 1200 + 120
Procedure: as §1, §2

[3] = tested on: STEME; test: Greenhouse trial, activity with different soil types; format: in vivo, Stellaria media; details: IU/EC73 soil versus IU soil; g of AS/ha: (A) 120, (B) 1200, (C) 90, mixture 120 + 1200 + 90
Procedure: as §1
(§3) About 3 weeks after the application, the soil action or/and foliar action was assessed visually according to a scale of 0-100% in comparison to an untreated comparative group: 0%=no noticeable effect compared to the untreated comparative group; 100%=full effect compared to the untreated comparative group.
(§4) (notes: the term “seeds” also includes vegetative propagation forms such as, for example, rhizome pieces; abbreviations used: h light=hours of illumination, g of AS/ha=gram of active substance per hectare, l/ha=liter per hectare, S=sensitive, R=resistant) • 1. Pre-emergence action against weeds: seeds of various broad-leaved weed and weed grass biotypes (origins) were sown in a 8-13 cm diameter pot filled with natural soil of a standard field soil (loamy silt; non-sterile) and covered with a covering soil layer of about 1 cm. The pots were then cultivated in a greenhouse (12-16 h of light, temperature day 20-22° C., night 15-18° C.) until the time of application. The pots were treated at the BBCH stage 00-10 of the seeds/plants on a laboratory track sprayer with spray liquors comprising the compositions according to the invention, mixtures or components used individually, as WG, WP, EC or other formulations. The application rate for the spray application was 100-600 l of water/ha. After the treatment, the plants were returned to the greenhouses and, when required, treated with fertilizer and watered. • 2. Post-emergence action against weeds: seeds of various broad-leaved weed and weed grass biotypes (origins) were sown in a 8-13 cm diameter pot filled with natural soil of a standard field soil (loamy silt; non-sterile) and covered with a covering soil layer of about 1 cm. The pots were then cultivated in a greenhouse (12-16 h of light, temperature day 20-22° C., night 15-18° C.) until the time of application. The pots were treated at various BBCH stages between 11-25 of the seeds/plants, i.e. generally between two to three weeks after the start of the cultivation, on a laboratory track sprayer with spray liquors comprising the compositions according to the invention, mixtures or components used individually, as WG, WP, EC or other formulations. The application rate for the spray application was 100-600 l of water/ha. After the treatment, the plants were returned to the greenhouses and, when required, treated with fertilizer and watered. • 3. Selective pre-emergence action: seeds of various crop species (origins) were sown in a 8-13 cm diameter pot filled with natural soil of a standard field soil (loamy silt; non-sterile) and covered with a covering soil layer of about 1 cm. The pots were then cultivated in a greenhouse (12-16 h of light, temperature day 20-22° C., night 15-18° C.) until the time of application. The pots were treated at the BBCH stage 00-10 of the seeds/plants on a laboratory track sprayer with spray liquors comprising the compositions according to the invention, mixtures or components used individually, as WG, WP, EC or other formulations. The application rate for the spray application was 100-600 l of water/ha. […]

[4] = tested on: TRZAS; test: Greenhouse trial, PE application with different irrigation variations (test method 6); format: in vivo, Triticum aestivum, summer wheat; details: g of AS/ha: (A) 120, (B) 1200, (C) 90, mixture 120 + 1200 + 90
Procedure: as §1, §3
(§5) (notes: the term “seeds” also includes vegetative propagation forms such as, for example, rhizome pieces; abbreviations used: h light=hours of illumination, g of AS/ha=gram of active substance per hectare, l/ha=liter per hectare, S=sensitive, R=resistant) • 1. Pre-emergence action against weeds: seeds of various broad-leaved weed and weed grass biotypes (origins) were sown in a 8-13 cm diameter pot filled with natural soil of a standard field soil (loamy silt; non-sterile) and covered with a covering soil layer of about 1 cm. The pots were then cultivated in a greenhouse (12-16 h of light, temperature day 20-22° C., night 15-18° C.) until the time of application. The pots were treated at the BBCH stage 00-10 of the seeds/plants on a laboratory track sprayer with spray liquors comprising the compositions according to the invention, mixtures or components used individually, as WG, WP, EC or other formulations. The application rate for the spray application was 100-600 l of water/ha. After the treatment, the plants were returned to the greenhouses and, when required, treated with fertilizer and watered. • 2. Post-emergence action against weeds: seeds of various broad-leaved weed and weed grass biotypes (origins) were sown in a 8-13 cm diameter pot filled with natural soil of a standard field soil (loamy silt; non-sterile) and covered with a covering soil layer of about 1 cm. The pots were then cultivated in a greenhouse (12-16 h of light, temperature day 20-22° C., night 15-18° C.) until the time of application. […]

[5] = tested on: HORVS; test: Greenhouse trial, pre-sowing application 7 days prior to sowing (test method 5); format: in vivo, Hordeum vulgare, summer barley; details: g of AS/ha: (A) 90, (B) 1200, (C) 90, mixture 90 + 1200
Procedure: as §1, §2

[6] = tested on: TRZAW; test: Greenhouse trial, PE application at different sowing depths (test method 9); format: in vivo, Triticum aestivum, winter wheat; details: g of AS/ha: (A) 120, (B) 1200, (C) 90, mixture 90 + 1200 + 90
Procedure: as §1, §3, §5

[7] = tested on: ALOMY; test: Greenhouse trial, PE application on sensitive and resistant biotypes (test method 8); format: in vivo, Alopecurus myosuroides; details: g of AS/ha: (A) 90, (B) 1200, (C) 90, mixture 90 + 1200 + 90, iodosulfuron 10; for activity ALOMY resistant (visual, scale 0-100%): resistant biotype; for activity ALOMY sensitive (visual, scale 0-100%): sensitive biotype
Procedure: as §1, §3, §4

[8] = tested on: AVEFA; test: Greenhouse trial, pre-sowing application 7 days prior to sowing (test method 5); format: in vivo, Avena fatua; details: g of AS/ha: (A) 90, (B) 1200, (C) 90, mixture 90 + 1200
Procedure: as §1, §2

[9] = tested on: HORVS; test: Greenhouse trial, activity with different soil types; format: in vivo, Hordeum vulgare, summer barley; details: g of AS/ha: (A) 120, (B) 1200, (C) 90, mixture 120 + 1200 + 90
Procedure: as §1, §3
(notes: the term “seeds” also includes vegetative propagation forms such as, for example, rhizome pieces; abbreviations used: h light=hours of illumination, g of AS/ha=gram of active substance per hectare, l/ha=liter per hectare, S=sensitive, R=resistant) • 1. Pre-emergence action against weeds: seeds of various broad-leaved weed and weed grass biotypes (origins) were sown in a 8-13 cm diameter pot filled with natural soil of a standard field soil (loamy silt; non-sterile) and covered with a covering soil layer of about 1 cm. The pots were then cultivated in a greenhouse (12-16 h of light, temperature day 20-22° C., night 15-18° C.) until the time of application. The pots were treated at the BBCH stage 00-10 of the seeds/plants on a laboratory track sprayer with spray liquors comprising the compositions according to the invention, mixtures or components used individually, as WG, WP, EC or other formulations. The application rate for the spray application was 100-600 l of water/ha. After the treatment, the plants were returned to the greenhouses and, when required, treated with fertilizer and watered. • 2. Post-emergence action against weeds: seeds of various broad-leaved weed and weed grass biotypes (origins) were sown in a 8-13 cm diameter pot filled with natural soil of a standard field soil (loamy silt; non-sterile) and covered with a covering soil layer of about 1 cm. The pots were then cultivated in a greenhouse (12-16 h of light, temperature day 20-22° C., night 15-18° C.) until the time of application. The pots were treated at various BBCH stages between 11-25 of the seeds/plants, i.e. generally between two to three weeks after the start of the cultivation, on a laboratory track sprayer with spray liquors comprising the compositions according to the invention, mixtures or components used individually, as WG, WP, EC or other formulations. The application rate for the spray application was 100-600 l of water/ha. After the treatment, the plants were returned to the greenhouses and, when required, treated with fertilizer and watered. • 3. […]

Row | SMILES | activity on crop plant HORVS (visual, scale 0-100%) [1] [%] | activity on crop plant HORVS (visual, scale 0-100%) [2] [%] | Difference of the soil types, STEME [3] [%] | activity on crop plant TRZAS (visual, scale 0-100%) ([4]; irrigation from above) [%] | activity on crop plant TRZAS (visual, scale 0-100%) ([4]; irrigation from below) [%] | activity on crop plant HORVS (visual, scale 0-100%) [5] [%] | activity on crop plant TRZAW 5 mm (visual, scale 0-100%) ([6]; sowing depth 5 mm) [%] | activity on crop plant TRZAW 20 mm (visual, scale 0-100%) ([6]; sowing depth 20 mm) [%] | activity ALOMY resistant (visual, scale 0-100%) [7] [%] | activity ALOMY sensitive (visual, scale 0-100%) [7] [%] | activity AVEFA (visual, scale 0-100%) [8] [%] | activity on crop plant HORVS IU soil (visual, scale 0-100%) ([9]; IU soil) [%] | activity on crop plant HORVS IU/EC73 soil (visual, scale 0-100%) ([9]; IU/EC73 soil) [%]
1 | O=C(Nc1ccc(F)cc1F)c1cccnc1Oc1cccc(C(F)(F)F)c1 [(C) diflufenican, N-(2,4-difluorophenyl)-2-[3-(trifluoromethyl)phenoxy]-3-pyridinecarboxamide] | 5 | 5 | −57 | 10 | 0 | 30 | 20 | 20 | 30 | 30 | 0 | 0 | 0
2 | COc1nc(C)nc(NC(=O)NS(=O)(=O)c2cc(I)ccc2C(=O)O)n1 [C)^1 iodosulfuron, iodosulfuron] |  |  |  |  |  |  |  |  | 50 | 98 |  |  | 
